Results reported in patent US9789101B2, “Methods and compositions for treating microbial infection using pyrroloquinone” (HELPERBY THERAPEUTICS LIMITED, priority 2010, dated 2017).
Counter-ions that a name gives are not always drawn.

System: log phase Staphylococcus aureus
Experiment: Chequerboard analysis of HT00800059 with HT230 or HT281 against log phase Staphylococcus aureus
Format: cell-based, Staphylococcus aureus (Oxford)
Description: Staphylococcus aureus (Oxford); Gram positive; Reference strain.
Log phase growth of methicilin sensitive Staphylococcus aureus (MSSA) was carried out as follows: • Bacteria were grown in 10 ml of nutrient broth (No. 2, (Oxoid)) overnight at 37° C. with continuous shaking at 120 rpm. The overnight cultures were diluted 1000× with iso-sensitest broth. The cultures were incubated at 37° C. with shaking for 1-2 hours to reach log CFU 6. Viability of the bacteria was estimated by colony forming unit (CFU) counts. From serial 10-fold dilutions of the experimental cultures, 100 μl samples were added to triplicate plates of nutrient agar plates (Oxoid) or blood agar plates (Oxoid). CFUs were counted after incubation of the plates at 37° C. for 24 hours.
Bacterial cultures: 10 μl of overnight cultures was added to 10 ml of fresh iso-sensitest broth to make the inoculation to 10^6 CFU/ml. 290 μl of the cell suspension was added to each well of the 96 well plate, which was incubated at 37° C. for 24 hours. 300 μl of iso-sensitest broth without bacterial cells were added to wells of the plate as a no bacterial control.
MIC determination: The optical density of the bacterial cells was read at 405 nm using a plate reader (Bio TEK). The MIC concentration was determined as the lowest concentration of drug which inhibits the bacterial growth.
HT230 was dissolved in DMSO to the stock concentration of 10 mg/ml.
HT281 was dissolved in DMSO to the stock concentration of 10 mg/ml.
HT00800059 was dissolved in H2O to the stock solution 30.07 mg/ml.
HT230 or HT281 (10 mg/ml) was firstly diluted to 0.96 mg/ml, then a serial of 2 fold dilution was carried out.
This was followed by the addition of 280 μl of log phase culture at 10^6 CFU/ml to make the final concentrations of each drug as shown.
In the above table, values in bold text are for HT00800059. Values in plain text are for HT230 or HT281. The numbers shown in each well are μg/ml.
Incubation of the compounds with the bacterial suspension was carried out for 24 hours. The kill effects of the drug combination were measured by optical density reading at 405 nm with a plate reader (Bio TEK).
The fractional inhibitory concentration (FIC) index was carried out as follows: (MIC of drug A, tested in combination)/(MIC of drug A, tested alone)+(MIC of drug B, tested in combination)/(MIC of drug B, tested alone). The interaction was defined as synergistic if the FIC index was <1, additive if the FIC index was =1 and antagonistic if the FIC index was >1.

`CCCCOc1ccc(C(=O)CCN2CCCCC2)cc1` [HT00800059, dyclonine (1-(4-Butoxyphenyl)-3-(1-piperidinyl)-1-propanone) hydrochloride] was tested, and the MIC after combination (HT230/HT00800059 chequerboard) was 64 µg/mL, the MIC before combination (HT230/HT00800059 chequerboard) was 512 µg/mL and the MIC after combination (HT281/HT00800059 chequerboard) was 128 µg/mL. For the same compound, the MIC before combination (HT281/HT00800059 chequerboard) was 512 µg/mL, the MIC (Staphylococcus aureus, read-out: alone MIC) was 512 µg/mL and the “HT00800059 MIC in combination” value (with HT230 at 2 μg/ml) was 64 µg/mL. The “HT00800059 MIC in combination” value (with HT281 at 4 μg/ml) was 128 µg/mL.
